Legend:
[1] = molecular target: T1, OATP1B1 (Homo sapiens, UniProt Q9Y6L6); test: Transporter inhibition, HEK293 cells
T1 sequence (Q9Y6L6 1-691): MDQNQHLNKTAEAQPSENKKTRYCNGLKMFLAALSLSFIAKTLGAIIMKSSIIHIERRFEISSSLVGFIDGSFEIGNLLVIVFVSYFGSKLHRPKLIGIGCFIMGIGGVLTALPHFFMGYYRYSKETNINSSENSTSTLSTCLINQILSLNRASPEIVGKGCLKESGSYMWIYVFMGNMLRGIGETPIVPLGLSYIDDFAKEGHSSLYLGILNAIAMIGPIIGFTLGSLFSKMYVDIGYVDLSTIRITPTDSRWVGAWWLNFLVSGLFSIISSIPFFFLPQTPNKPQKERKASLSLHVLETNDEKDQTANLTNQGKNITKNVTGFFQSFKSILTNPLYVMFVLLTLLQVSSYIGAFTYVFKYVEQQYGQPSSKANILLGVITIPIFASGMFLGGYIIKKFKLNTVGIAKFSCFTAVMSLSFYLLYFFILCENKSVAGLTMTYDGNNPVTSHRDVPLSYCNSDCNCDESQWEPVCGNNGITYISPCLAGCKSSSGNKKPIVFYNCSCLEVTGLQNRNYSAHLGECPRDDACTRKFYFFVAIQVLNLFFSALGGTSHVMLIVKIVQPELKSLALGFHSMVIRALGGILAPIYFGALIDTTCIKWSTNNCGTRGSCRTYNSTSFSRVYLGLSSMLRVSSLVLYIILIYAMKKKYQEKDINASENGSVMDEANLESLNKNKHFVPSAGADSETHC

[2] = molecular target: T1, OATP1B1; test: Transporter substrate evaluation, HEK293 cells; format: in vitro ADME; parameters: expressed in transfected cells; host or cells: HEK293; settings: 1 and 10 μM
[3] = molecular target: rCYP2C8 (Homo sapiens, UniProt P10632); test: Compound 1 loss on incubation with rCYP enzymes; format: in vitro ADME; settings: 120 minutes of incubation
[4] = molecular target: T2, BCRP (Homo sapiens, UniProt Q9UNQ0); test: Transporter substrate evaluation, MDCKII-BCRP cells; format: in vitro ADME
T2 sequence (Q9UNQ0 1-655): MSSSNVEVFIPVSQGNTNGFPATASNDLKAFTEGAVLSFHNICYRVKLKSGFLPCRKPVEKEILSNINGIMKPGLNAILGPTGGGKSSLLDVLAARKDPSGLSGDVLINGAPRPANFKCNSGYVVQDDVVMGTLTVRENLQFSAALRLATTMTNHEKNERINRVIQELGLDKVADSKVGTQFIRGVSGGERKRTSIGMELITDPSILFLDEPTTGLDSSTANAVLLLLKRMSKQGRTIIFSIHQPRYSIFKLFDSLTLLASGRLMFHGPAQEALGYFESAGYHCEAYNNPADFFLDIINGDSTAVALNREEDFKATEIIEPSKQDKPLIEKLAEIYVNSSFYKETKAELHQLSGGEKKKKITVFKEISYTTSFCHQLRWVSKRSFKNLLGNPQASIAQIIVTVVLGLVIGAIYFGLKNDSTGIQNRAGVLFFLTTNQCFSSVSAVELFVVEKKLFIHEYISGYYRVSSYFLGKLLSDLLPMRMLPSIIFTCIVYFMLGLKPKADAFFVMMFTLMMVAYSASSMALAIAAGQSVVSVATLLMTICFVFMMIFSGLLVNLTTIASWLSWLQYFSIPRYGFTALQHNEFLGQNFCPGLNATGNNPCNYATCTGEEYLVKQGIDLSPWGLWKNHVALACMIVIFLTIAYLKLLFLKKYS

[5] = molecular target: T3, OAT1 (Homo sapiens, UniProt Q4U2R8); test: Transporter substrate evaluation, HEK293 cells; format: in vitro ADME; settings: 1 and 10 μM
T3 construct: expressed in transfected cells; host or cells: HEK293
T3 sequence (Q4U2R8 1-563): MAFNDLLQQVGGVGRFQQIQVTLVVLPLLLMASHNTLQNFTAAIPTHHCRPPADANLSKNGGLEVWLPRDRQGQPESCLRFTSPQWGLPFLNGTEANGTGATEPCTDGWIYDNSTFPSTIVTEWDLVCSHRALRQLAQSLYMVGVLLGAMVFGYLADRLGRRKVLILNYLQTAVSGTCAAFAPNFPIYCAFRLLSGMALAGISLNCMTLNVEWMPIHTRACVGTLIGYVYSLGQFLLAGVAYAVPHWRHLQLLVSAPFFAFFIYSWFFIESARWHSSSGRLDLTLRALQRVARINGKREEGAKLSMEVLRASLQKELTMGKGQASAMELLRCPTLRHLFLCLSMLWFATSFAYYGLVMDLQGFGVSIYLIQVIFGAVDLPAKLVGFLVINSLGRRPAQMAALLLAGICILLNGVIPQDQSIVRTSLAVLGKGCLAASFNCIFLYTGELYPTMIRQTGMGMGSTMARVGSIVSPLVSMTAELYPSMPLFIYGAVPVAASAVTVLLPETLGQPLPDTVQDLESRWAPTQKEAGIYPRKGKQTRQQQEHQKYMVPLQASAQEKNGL

[6] = molecular target: P-gp (Homo sapiens, UniProt P08183); test: Transporter inhibition, Caco-2 cells
[7] = molecular target: T4, OCT2 (Homo sapiens, UniProt O15244); test: Transporter substrate evaluation, HEK293 cells; format: in vitro ADME; settings: 1 and 10 μM
T4 construct: expressed in transfected cells; host or cells: HEK293
T4 sequence (O15244 1-555): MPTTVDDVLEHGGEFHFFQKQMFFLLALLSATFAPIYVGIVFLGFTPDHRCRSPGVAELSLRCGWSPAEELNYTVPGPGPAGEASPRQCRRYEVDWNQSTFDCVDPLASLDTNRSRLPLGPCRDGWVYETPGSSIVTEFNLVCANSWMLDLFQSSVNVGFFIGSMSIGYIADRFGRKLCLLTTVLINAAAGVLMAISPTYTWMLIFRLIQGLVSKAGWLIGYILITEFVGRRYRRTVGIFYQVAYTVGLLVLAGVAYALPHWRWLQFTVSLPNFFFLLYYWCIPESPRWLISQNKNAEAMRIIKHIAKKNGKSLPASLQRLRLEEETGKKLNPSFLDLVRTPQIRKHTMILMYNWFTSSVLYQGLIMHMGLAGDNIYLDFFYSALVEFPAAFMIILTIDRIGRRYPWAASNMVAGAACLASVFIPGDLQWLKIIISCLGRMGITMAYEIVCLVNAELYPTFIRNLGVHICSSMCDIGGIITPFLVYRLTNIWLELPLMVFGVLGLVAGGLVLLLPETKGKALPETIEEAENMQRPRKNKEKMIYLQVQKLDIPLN

Sequence of P-gp (P08183 whole entry): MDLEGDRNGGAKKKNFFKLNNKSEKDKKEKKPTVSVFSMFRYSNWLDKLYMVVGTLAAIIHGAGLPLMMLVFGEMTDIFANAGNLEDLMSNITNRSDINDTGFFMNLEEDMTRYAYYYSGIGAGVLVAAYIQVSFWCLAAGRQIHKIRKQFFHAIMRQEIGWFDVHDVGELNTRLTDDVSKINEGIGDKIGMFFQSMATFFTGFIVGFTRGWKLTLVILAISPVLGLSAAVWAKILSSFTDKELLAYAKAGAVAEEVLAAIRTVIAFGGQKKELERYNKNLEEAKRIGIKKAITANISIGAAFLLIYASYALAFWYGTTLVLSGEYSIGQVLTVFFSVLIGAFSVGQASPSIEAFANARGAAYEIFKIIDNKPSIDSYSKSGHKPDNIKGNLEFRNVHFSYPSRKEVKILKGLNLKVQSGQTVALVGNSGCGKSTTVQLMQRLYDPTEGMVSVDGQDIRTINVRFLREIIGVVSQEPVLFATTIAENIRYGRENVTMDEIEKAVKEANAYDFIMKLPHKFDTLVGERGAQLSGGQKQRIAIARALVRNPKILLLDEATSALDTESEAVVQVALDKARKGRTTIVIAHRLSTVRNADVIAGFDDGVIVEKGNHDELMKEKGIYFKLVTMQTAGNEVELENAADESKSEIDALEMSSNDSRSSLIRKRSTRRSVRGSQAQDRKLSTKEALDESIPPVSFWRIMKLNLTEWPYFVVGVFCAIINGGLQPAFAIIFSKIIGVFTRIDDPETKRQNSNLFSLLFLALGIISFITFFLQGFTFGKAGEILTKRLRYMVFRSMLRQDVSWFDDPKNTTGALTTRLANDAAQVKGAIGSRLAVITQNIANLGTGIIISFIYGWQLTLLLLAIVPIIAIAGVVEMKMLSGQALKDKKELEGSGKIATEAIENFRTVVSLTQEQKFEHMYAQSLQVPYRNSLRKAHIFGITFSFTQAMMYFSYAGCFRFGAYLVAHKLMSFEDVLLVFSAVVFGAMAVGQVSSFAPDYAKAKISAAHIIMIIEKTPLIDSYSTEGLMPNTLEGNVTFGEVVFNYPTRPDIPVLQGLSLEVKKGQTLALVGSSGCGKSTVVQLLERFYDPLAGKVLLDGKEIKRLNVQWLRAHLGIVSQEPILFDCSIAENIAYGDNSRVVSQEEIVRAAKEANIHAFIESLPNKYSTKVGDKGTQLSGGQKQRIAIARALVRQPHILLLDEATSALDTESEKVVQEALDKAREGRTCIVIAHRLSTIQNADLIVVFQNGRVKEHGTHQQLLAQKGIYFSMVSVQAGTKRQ
Sequence of rCYP2C8 (P10632 whole entry): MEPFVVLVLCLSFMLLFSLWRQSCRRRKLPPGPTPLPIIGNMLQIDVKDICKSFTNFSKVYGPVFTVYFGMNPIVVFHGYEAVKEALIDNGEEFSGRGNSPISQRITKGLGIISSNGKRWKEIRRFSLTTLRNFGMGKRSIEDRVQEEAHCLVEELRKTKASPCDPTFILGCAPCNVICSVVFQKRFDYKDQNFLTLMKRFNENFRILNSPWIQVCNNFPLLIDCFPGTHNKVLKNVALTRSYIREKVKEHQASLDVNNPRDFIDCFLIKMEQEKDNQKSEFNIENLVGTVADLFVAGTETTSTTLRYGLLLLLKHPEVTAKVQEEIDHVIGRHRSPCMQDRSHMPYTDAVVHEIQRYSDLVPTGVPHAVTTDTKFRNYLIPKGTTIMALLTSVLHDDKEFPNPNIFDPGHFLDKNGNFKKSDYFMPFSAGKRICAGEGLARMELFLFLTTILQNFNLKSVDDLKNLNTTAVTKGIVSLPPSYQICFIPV

For `O=C(O)C[C@H]1CCc2c1[nH]c1ccc(OCc3ccc(C4CCCC4)c(C(F)(F)F)c3)cc21` [Compound 1, (R)-2-(7-(4-cyclopentyl-3-(trifluoromethyl)benzyloxy)-1,2,3,4-tetrahydrocyclopenta[b]indol-3-yl)acetic acid], the OATP1B1 inhibition ([1]; 1 μM Compound 1) was “no OATP1B1 inhibition”, the “Reduction of uptake rate of [3H]-estradiol-17β-glucuronide (50 nM) into OATP1B1-expressing cells” value ([1]; 10 μM Compound 1) was roughly 50% and the “Potential substrate of OATP1B1” value ([2]; HEK293 cells) was “not a substrate of OATP1B1 and not a substrate and No”. For the same molecule, the “Uptake ratio into OATP1B1-expressing cells” value ([2]; absence and presence of rifampin) was “less than two”, the “Compound 1 loss with rCYP2C8” value [3] was “up to 75%” and the “Efflux ratio of Compound 1 across MDCKII-BCRP cells” value ([4]; 1 μM, absence and presence of Ko143 (1 μM)) was “less than two”. For the same molecule, the efflux ratio at 10 μM ([4]; human, 10 μM) was 7.36, the recovery ([4]; human, MDCKII-BCRP assay) was 27 to 48% and the “Potential substrate of OAT1” value ([5]; HEK293 cells) was “not a substrate of OAT1 and not a substrate and No”. For the same molecule, the “Uptake ratio into OAT1-expressing cells” value ([5]; absence and presence of probenecid (100 μM)) was “less than two”, the P-gp inhibition ([6]; 10 μM Compound 1) was “no P-gp inhibition” and the “Reduction of efflux ratio of digoxin (10 μM) across Caco-2 cells” value ([6]; 100 μM Compound 1) was 50%. The “Potential substrate of OCT2” value ([7]; HEK293 cells) was “not a substrate of OCT2 and not a substrate and No” and the “Uptake ratio into OCT2-expressing cells” value ([7]; absence and presence of quinidine (300 μM)) was “below two”.

Source: patent publication US20210228545A1, “METHODS OF TREATING CONDITIONS RELATED TO THE S1P1 RECEPTOR” (Arena Pharmaceuticals, Inc., priority 2018, published 2021)
